Measurements from patent US12616656B2, “Adventitial painting modality of local drug delivery to abate intimal hyperplasia” (University of Virginia Patent Foundation, priority 2021, dated 2026).

Assays:
[1] = test system: active (cleaved) caspase-3; test: Immunostaining of the apoptosis marker active (cleaved) caspase-3; assay type: in vivo, Sprague-Dawley rats; settings: Mode-3 painting, 14 days
Procedure: (§1) Paraffin-embedded specimens were processed into 5-μm thick sections for immunostaining. The slides were deparaffinized and hydrated through series of xylenes and graded alcohol. Antigens were retrieved using citrate buffer for 2 hours at 80° C. in a high-pressure cooker. Endogenous peroxidase was blocked by incubation with 3% H2O2 for 10 min. Following application of a monoclonal antibody against either cleaved Caspase 3 (9661, Cell Signaling Technology, Inc., Danvers, MA) or CD68 (T-3003, BMA Biomedicls, Augst, Switzerland), ImmPRESS HRP Anti-Rabbit IgG (Peroxidase) Polymer Detection Kit (MP-7451, Vector Laboratories Inc., Burlingame, CA) was used as the secondary antibody. The staining intensity was visualized using ImmPACT DAB Peroxidase (HRP) Substrate (SK-4105, Vector Laboratories). Data values from 6 different portions were averaged for each animal, and averages from total animals in a group were used to calculate mean+SEM and statistical analysis.

collagen = test: Masson's trichrome staining, collagen density in the artery; assay type: in vivo, Sprague-Dawley rats; settings: Mode-1, 14 days
Procedure: Four to six cross-sections cut from different locations (see detailed description above) from the balloon-injured CCA per each animal were used for Masson's trichrome staining. The color images were transformed into monochrome images at an 8-bit scale using Image J. After adjusting the threshold consistent through the analysis, integrated density of interest was measured. Data values from 6 sections were averaged for each animal, and averages from total animals in a group were used to calculate mean+SEM and statistical analysis.

CD68 = test: Immunostaining of the inflammation marker CD68; assay type: in vivo, Sprague-Dawley rats
Procedure: as §1

IH in a rat model = settings: perivascular administration; cited from earlier work

| fibrosis (adventitial collagen accumulation) (collagen) | number of CD68-positive cells (CD68; Mode-1 and Mode-2, 14 days) | inflammation marker (CD68 staining) (CD68; Mode-3 painting, 14 days) | SMILES | apoptosis marker (caspase-3 positive cells) [1] | IH (IH in a rat model) |
| --- | --- | --- | --- | --- | --- |
| alleviated this fibrotic severity | the difference was abolished | reduced CD68 staining in the vessel wall | CO[C@H]1C[C@@H]2CC[C@@H](C)[C@@](O)(O2)C(=O)C(=O)N2CCCC[C@H]2C(=O)O[C@H]([C@H](C)C[C@@H]2CC[C@@H](O)[C@H](OC)C2)CC(=O)[C@H](C)/C=C(\C)[C@@H](O)[C@@H](OC)C(=O)[C@H](C)C[C@H](C)/C=C/C=C/C=C/1C [Rapamycin] | lowered the overall number of caspase-3 positive cells |  |
|  |  |  | CC(C)N(C[C@H]1O[C@@H](n2cnc3c(N)ncnc32)[C@H](O)[C@@H]1O)[C@H]1C[C@@H](CCc2nc3cc(C(C)(C)C)ccc3[nH]2)C1 [Pinometostat, pinometostat] |  | reduced IH |
